From patent US20220056019A1, “FARNESOID X RECEPTOR AGONISTS AND USES THEREOF” (Metacrine, Inc., priority 2018, published 2022)

Molecular target: T1, hFXR (Homo sapiens, UniProt Q96RI1)
T1 construct: expressed in transfected cells; host or cells: CV-1 cells
T1 sequence (Q96RI1 1-486): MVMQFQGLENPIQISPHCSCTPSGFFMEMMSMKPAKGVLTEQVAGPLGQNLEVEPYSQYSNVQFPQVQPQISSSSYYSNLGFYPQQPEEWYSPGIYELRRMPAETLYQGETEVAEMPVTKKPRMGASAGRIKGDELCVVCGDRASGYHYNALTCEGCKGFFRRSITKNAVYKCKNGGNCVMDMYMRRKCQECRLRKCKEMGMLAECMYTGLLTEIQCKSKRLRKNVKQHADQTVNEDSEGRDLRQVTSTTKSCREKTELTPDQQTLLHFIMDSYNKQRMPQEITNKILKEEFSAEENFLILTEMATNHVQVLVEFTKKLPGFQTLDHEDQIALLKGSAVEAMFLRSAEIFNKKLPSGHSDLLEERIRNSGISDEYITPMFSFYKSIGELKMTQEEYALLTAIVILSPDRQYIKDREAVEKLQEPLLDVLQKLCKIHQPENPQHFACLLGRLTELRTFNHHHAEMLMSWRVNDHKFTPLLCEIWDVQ
T1 sequence (P19793 1-462 partner): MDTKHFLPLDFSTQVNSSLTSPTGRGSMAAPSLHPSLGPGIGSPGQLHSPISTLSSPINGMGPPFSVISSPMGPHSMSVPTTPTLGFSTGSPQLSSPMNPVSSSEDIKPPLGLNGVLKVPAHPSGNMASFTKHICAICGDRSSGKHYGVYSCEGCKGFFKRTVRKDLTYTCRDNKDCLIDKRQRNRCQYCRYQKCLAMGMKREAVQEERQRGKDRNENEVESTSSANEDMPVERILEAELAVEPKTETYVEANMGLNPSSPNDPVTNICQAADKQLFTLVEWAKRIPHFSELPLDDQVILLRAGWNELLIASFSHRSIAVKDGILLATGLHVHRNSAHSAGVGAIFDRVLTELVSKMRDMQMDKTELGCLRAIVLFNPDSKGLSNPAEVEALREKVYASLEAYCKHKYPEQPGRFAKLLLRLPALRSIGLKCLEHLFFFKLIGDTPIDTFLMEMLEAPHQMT
Experiment: In Vitro FXR Assay (TK): TK-ECRE-luc reporter in transfected CV-1 cells
Format: cell-based
Conditions: 18 hrs incubation, luminescence
Procedure, shortened: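 CV-1 cells transiently cotransfected with hFXR, hRXR, TK-ECRE-luc reporter and pCMX-YFP plasmids in charcoal-stripped serum medium. Serially diluted compounds added for 18 h at 37° C., then cells lysed and luciferase luminescence measured.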

SMILES	EC50
COc1ccc(C23CCC(CN(c4cc(-c5cnn(C6CCSCC6)c5)ccn4)C(=O)[C@H]4CC[C@H](OC(=O)N5CC(O)C5)CC4)(CC2)CC3)cc1C [Compound 26.21, 4-(((4-(4-Methoxy-3-methylphenyl)bicyclo[2.2.2]octan-1-yl)methyl)(4-(1-(tetrahydro-2H-thiopyran-4-yl)-1H-pyrazol-4-yl)pyridin-2-yl)carbamoyl)cyclohexyl trans-3-hydroxyazetidine-1-carboxylate]	≤ 50 nM
CCC1CN(C(=O)O[C@H]2CC[C@H](C(=O)N(CC34CCC(c5ccc(OC)c(C)c5)(CC3)CC4)c3cc(-c4cnn(C(C)C)c4)ccn3)CC2)C1 [Compound 4.54, 4-((4-(1-Isopropyl-1H-pyrazol-4-yl)pyridin-2-yl) ((4-(4-methoxy-3-methylphenyl)bicyclo [2.2.2]octan-1-yl)methyl)carbamoyl)cyclohexyl trans-3-ethylazetidine-1-carboxylate]	≤ 50 nM
CCc1ncc(-c2ccnc(N(CC34CCC(c5ccc(OC)c(C)c5)(CC3)CC4)C(=O)[C@H]3CC[C@H](OC(=O)N4CC(O)C4)CC3)c2)s1 [Compound 4.20, 4-((4-(2-Ethylthiazol-5-yl)pyridin-2-yl)((4-(4-methoxy-3-methylphenyl)bicyclo[2.2.2]octan-1-yl)methyl)carbamoyl) cyclohexyl 3-hydroxyazetidine-trans-1-carboxylate]	≤ 50 nM
COc1ccc([C@H]2CC[C@H](CN(c3cc(-c4cnc(C(C)C)s4)ccn3)C(=O)[C@H]3CC[C@H](OC(=O)NCC(C)(C)O)CC3)CC2)cc1C [Compound 2.10, trans-4-((4-(2-Isopropylthiazol-5-yl)pyridin-2-yl)((trans-4-(4-methoxy-3-methylphenyl)cyclohexyl)methyl)carbamoyl) cyclohexyl(2-hydroxy-2-methylpropyl)carbamate]	≤ 50 nM
COc1ncc([C@H]2CC[C@H](CN(c3cc(-c4coc(C5CC5)n4)ccn3)C(=O)[C@H]3CC[C@H](OC(=O)N4CCN(C)CC4)CC3)CC2)cc1C [Compound 1.03, trans-4-((4-(2-Cyclopropyloxazol-4-yl)pyridin-2-yl)(((trans)-4-(6-methoxy-5-methylpyridin-3-yl)cyclohexyl)methyl)carbamoyl)cyclohexyl 4-methylpiperazine-1-carboxylate]	≤ 50 nM
COc1ccc(C23CCC(CN(c4cc(C5CCN(C(C)C)CC5)ccn4)C(=O)[C@H]4CC[C@H](OC(=O)N5CC(O)C5)CC4)(CC2)CC3)cc1C [Compound 23.17, 4-((4-(1-Isopropylpiperidin-4-yl)pyridin-2-yl)((4-(4-methoxy-3-methylphenyl)bicyclo[2.2.2]octan-1-yl)methyl)carbamoyl)cyclo-hexyl trans-3-hydroxyazetidine-1-carboxylate]	50 to 1000 nM
COc1ccc(C23CCC(CN(c4ccc(F)c(-c5cnn(C(C)C)c5)c4)C(=O)[C@H]4CC[C@H](OC(=O)NCCCO)CC4)(CC2)CC3)cc1C [Compound 25.08, 4-((4-Fluoro-3-(1-isopropyl-1H-pyrazol-4-yl)phenyl)((4-(4-methoxy-3-methylphenyl)bicyclo[2.2.2]octan-1-yl)methyl)carbamoyl)cyclohexyl trans-(3-hydroxypropyl)carbamate]	≤ 50 nM
COc1ccc(C23CCC(CN(c4cccc(-c5nnc(C6CC6)o5)c4)C(=O)[C@H]4CC[C@H](OC(=O)N5CC(O)C5)CC4)(CC2)CC3)cc1C [Compound 4.32, 4-((3-(5-Cyclopropyl-1,3,4-oxadiazol-2-yl)phenyl)((4-(4-methoxy-3-methylphenyl)bicyclo [2.2.2]octan-1-yl)methyl)carbamoyl)cyclohexyl trans-3-hydroxyazetidine-1-carboxylate]	≤ 50 nM
COc1ccc([C@H]2CC[C@H](CN(c3cc(-c4cc(C5CC5)no4)ccn3)C(=O)[C@H]3CC[C@H](OC(=O)N4CC(O)C4)CC3)CC2)cc1C [Compound 2.38, trans-4-((4-(3-Cyclopropylisoxazol-5-yl)pyridin-2-yl)((trans-4-(4-methoxy-3-methylphenyl)cyclohexyl)methyl)carbamoyl)cyclohexyl 3-hydroxyazetidine-1-carboxylate]	≤ 50 nM
COc1ccc(C23CCC(CN(c4cccc(-c5cnn(C(C)C)c5)c4F)C(=O)[C@H]4CC[C@H](OC(=O)N5CC(O)C5)CC4)(CC2)CC3)cc1C [Compound 25.04, 4-((2-Fluoro-3-(1-isopropyl-1H-pyrazol-4-yl)phenyl)((4-(4-methoxy-3-methylphenyl)bicyclo[2.2.2]octan-1-yl)methyl)carbamoyl)cyclohexyl trans-3-hydroxyazetidine-1-carboxylate]	≤ 50 nM
COc1ccc(C23CCC(CN(c4cc(-c5cnn(C6(C)CCC6)c5)ccn4)C(=O)[C@H]4CC[C@H](OC(=O)NCCO)CC4)(CC2)CC3)cc1C [Compound 25.16, 4-(((4-(4-Methoxy-3-methylphenyl)bicyclo[2.2.2]octan-1-yl)methyl)(4-(1-(1-methylcyclobutyl)-1H-pyrazol-4-yl)pyridin-2-yl)carbamoyl)(trans-cyclohexyl)(2-hydroxyethyl)carbamate]	≤ 50 nM
COc1ccc(C23CCC(CN(c4cc(-c5cnn(C(C)C)c5)ncn4)C(=O)[C@H]4CC[C@H](OC(=O)N5CC(O)C5)CC4)(CC2)CC3)cc1C [Compound 23, 4-((6-(1-Isopropyl-1H-pyrazol-4-yl)pyrimidin-4-yl)((4-(4-methoxy-3-methylphenyl)bicyclo[2.2.2]octan-1-yl)methyl)carbamoyl)(trans-cyclohexyl) 3-hydroxyazetidine-1-carboxylate]	≤ 50 nM
CCCNC(=O)O[C@H]1CC[C@H](C(=O)N(C[C@H]2CC[C@H](c3ccc(OC)c(C)c3)CC2)c2cccc(-c3cnn(C(C)C)c3)c2)CC1 [Compound 5.03, trans-4-((3-(1-Isopropyl-1H-pyrazol-4-yl)phenyl)(((trans)-4-(4-methoxy-3-methylphenyl)cyclohexyl)methyl)carbamoyl)cyclohexyl propylcarbamate]	≤ 50 nM
COc1ccc(C23CCC(CN(c4cc(-c5cnn(C(C)C)c5)ccn4)C(=O)[C@H]4CC[C@H](NC(=O)OC(C)C)CC4)(CC2)CC3)cc1C [Compound 8.02, (trans)-Isopropyl (4-((4-(1-isopropyl-1H-pyrazol-4-yl)pyridin-2-yl)((4-(4-methoxy-3-methylphenyl)bicyclo[2.2.2]octan-1-yl)methyl)carbamoyl)cyclohexyl)car-bamate]	≤ 50 nM
COc1ccc(C23CCC(CN(c4cc(-c5cnc(C6CC6)s5)ccn4)C(=O)[C@H]4CC[C@H](OC(=O)N5CC(O)C5)CC4)(CC2)CC3)cc1C [Compound 4.01, 4-((4-(2-Cyclopropylthiazol-5-yl)pyridin-2-yl)((4-(4-methoxy-3-methylphenyl)bicyclo[2.2.2]octan-1-yl)methyl)carbamoyl) cyclohexyl 3-hydroxyazetidine-trans-1-carboxylate]	≤ 50 nM
CCc1nc(-c2ccnc(N(CC34CCC(c5ccc(OC)c(C)c5)(CC3)CC4)C(=O)[C@H]3CC[C@H](OC(=O)N4CC(CO)C4)CC3)c2)co1 [Compound 4.30, 4-((4-(2-Ethyloxazol-4-yl)pyridin-2-yl)((4-(4-methoxy-3-methylphenyl)bicyclo[2.2.2]octan-1-yl)methyl)carbamoyl)(trans-cyclohexyl) 3-(hydroxymethyl)azetidine-1-carboxylate]	≤ 50 nM
COc1ccc(C23CCC(CN(c4cc(-c5cnn(C6(C)CCC6)c5)ccn4)C(=O)[C@H]4CC[C@H](OC(=O)NCCCO)CC4)(CC2)CC3)cc1C [Compound 25.17, 4-(((4-(4-Methoxy-3-methylphenyl)bicyclo[2.2.2]octan-1-yl)methyl)(4-(1-(1-methylcyclobutyl)-1H-pyrazol-4-yl)pyridin-2-yl)carbamoyl)(trans-cyclohexyl)(3-hydroxypropyl)carbamate]	≤ 50 nM
COc1ccc([C@H]2CC[C@H](CN(c3cccc(-c4cnn(C(C)C)c4)c3)C(=O)[C@H]3CC[C@H](NC(=O)OC4CCN(C)CC4)CC3)CC2)cc1C [Compound 6.08, 1-Methylpiperidin-4-yl (trans-4-((3-(1-isopropyl-1H-pyrazol-4-yl)phenyl)((trans-4-(4-methoxy-3-methylphenyl)cyclohexyl)meth-yl)carbamoyl)cyclohexyl)carbamate]	50 to 1000 nM
COc1ccc([C@H]2CC[C@H](CN(c3cccc(-c4cnn(C(C)C)c4)c3)C(=O)[C@H]3CC[C@H](NC(=O)OC4CCOCC4)CC3)CC2)cc1C [Compound 6.06, Tetrahydro-2H-pyran-4-yl (trans-4-((3-(1-isopropyl-1H-pyrazol-4-yl)phenyl)((trans-4-(4-methoxy-3-methylphenyl)cyclohexyl)meth-yl)carbamoyl)cyclohexyl)carbamate]	≤ 50 nM
